According to patent publication US20060252116A1, “Icam-4 binding sites” (priority 2002, published 2006):
Ends that are not written are not given here.

Experiments:
Assay type in all cases: cell-based
[1] = system: HEL cell binding to human ICAM-4Fc; assay: Cell adhesion assay: peptide inhibition of HEL cell binding to human ICAM-4Fc; details: for input cells bound expressed as a percentage of binding to ICAM-4Fc in the absence of peptides: FIG. 8, human ICAM-4Fc coated at 5 μg/ml, peptides 500 μM each, mean of three assays; for input cells bound expressed as a percentage of binding to human ICAM-4Fc in the absence of peptides: FIG. 16, human ICAM-4Fc coated at 2.5 μg/ml, peptides 750 μM each, EDTA 2 mM, mean of two assays
Experimental: (§1) Cell adhesion assays were performed as described in Spring et al. 2001 (supra). Immulon4 96 well plates (Dynex Technologies, Billingshurst, United Kingdom) were coated with 1 μg/well goat-antihuman-Fc (Sigma, Poole, United Kingdom) for 24 hours at 4° C., washed three times with PBS and coated with an Fc fusion ICAM-4 protein for 18 hours at 4° C. before blocking with 0.4% BSA PBS for 2 hours at 22° C. Cells were labelled with 10 μg/ml 2′,7′-bis-(2-carboxyethyl)-5-(and-6-) carboxyfluorescein acetoxymethyl ester in assay buffer (IMEM, 2 mM EGTA, 10 μg/ml human ivIgG) for 15 minutes at 37° C. HT1080 cells were activated with 80 μM phorbol myristate acetate prior to both cells being washed with assay buffer containing 2 mM Mn^2+. Cells, at 5×10^4 cells per well, were added to the ICAM-4Fc-coated plates for 30 minutes at 37° C., prior to being given repeated washes in assay buffer and read on a fluorescence microplate reader (excitation 485 nm, emission 530 nm). The percentage of bound cells was calculated after each wash. […] In peptide inhibition studies the appropriate ICAM-4Fc coating concentration for each cell line was pre-determined by titration of ICAM-4Fc and the lowest concentration at which maximal binding was achieved was used to coat the plates

[2] = system: HT1080 cell binding to human ICAM-4Fc; assay: Cell adhesion assay: peptide inhibition of HT1080 cell binding to human ICAM-4Fc
Experimental: as §1

[3] = system: HEL cell binding to murine ICAM-4Fc; assay: Cell adhesion assay: peptide inhibition of HEL cell binding to murine ICAM-4Fc; details: FIG. 12, murine ICAM-4Fc coated at 5 μg/ml, peptides 500 μM each, mean of two assays
Experimental: Cell adhesion assays were performed as described in Spring et al. 2001 (supra). Immulon4 96 well plates (Dynex Technologies, Billingshurst, United Kingdom) were coated with 1 μg/well goat-antihuman-Fc (Sigma, Poole, United Kingdom) for 24 hours at 4° C., washed three times with PBS and coated with an Fc fusion ICAM-4 protein for 18 hours at 4° C. before blocking with 0.4% BSA PBS for 2 hours at 22° C. Cells were labelled with 10 μg/ml 2′,7′-bis-(2-carboxyethyl)-5-(and-6-) carboxyfluorescein acetoxymethyl ester in assay buffer (IMEM, 2 mM EGTA, 10 μg/ml human ivIgG) for 15 minutes at 37° C. HT1080 cells were activated with 80 μM phorbol myristate acetate prior to both cells being washed with assay buffer containing 2 mM Mn^2+. Cells, at 5×10^4 cells per well, were added to the ICAM-4Fc-coated plates for 30 minutes at 37° C., prior to being given repeated washes in assay buffer and read on a fluorescence microplate reader (excitation 485 nm, emission 530 nm). The percentage of bound cells was calculated after each wash. Peptide inhibition was performed by incubating the cells with 500 μM peptide at 0° C. for 15 minutes ahead of their addition, still in the presence of 500 μM peptide to the ICAM-4Fc coated plates. In peptide inhibition studies the appropriate ICAM-4Fc coating concentration for each cell line was pre-determined by titration of ICAM-4Fc and the lowest concentration at which maximal binding was achieved was used to coat the plates

[4] = system: HT1080 cell binding to murine ICAM-4Fc; assay: Cell adhesion assay: peptide inhibition of HT1080 cell binding to murine ICAM-4Fc; details: FIG. 14, murine ICAM-4Fc coated at 5 μg/ml, peptides 500 μM each, mean of two assays
Experimental: as §1

[5] = system: erythroblast adhesion to ICAM-4; assay: Peptide inhibition of erythroblast adhesion to ICAM-4; details: FIG. 19; 5 μg/ml ICAM-4; 5 μg/ml TS2/16 beta 1 activating antibody; peptides 500 μM
Experimental: We have utilised the blocking ICAM-4 peptides (i.e., SEQ ID NOs: 9, 10, 11 and 13—see Example 1) in order to inhibit the adhesion of day 4 erythroblasts to ICAM-4 (see FIG. 19). Erythroblast cultures were initiated from CD34 positive cells purified from pooled buffy coat residues (obtained from the National Blood Service, Bristol, UK) and maintained as described in Southcott et al. (1999, Blood 93: 4425-4435). Cell adhesion assays were performed as described in Example 1 above. Immulon-4 96 well plates (Dynes Technologies, Billingshurst, UK) were coated with 1 μg/well goat-antihuman-Fc (Sigma, Poole, UK) for 24 hours at 4° C., washed three times with PBS and coated with 0.25 μg/well Fc fusion ICAM-4 protein (ICAM-4Fc) for 18 hours at 4° C. before blocking with 0.4% BSA PBS for 2 hours at 22° C. Erythroblasts were labelled with 10 μg/ml 2′,7′-bis-(2-carboxyethyl)-5-(and-6-)carboxyfluorescein acetoxymethyl ester (Sigma, Poole, UK) in assay buffer (Iscoves modified Eagle medium, 2 mM EGTA, 0.1% BSA, 10 μg/ml Immune globulin intravenous (human) (Cutter Biological, Newbury, Berks, UK)) for 15 minutes at 37° C. Erythroblasts were washed with assay buffer containing 2 mM Mn^2+. Erythroblasts, at 5×10^4 cells per well, were added to the ICAM-4Fc-coated plates for 30 minutes at 37° C., prior to being cyclically read on a fluorescence microplate reader (excitation 485 nm, emission 530 nm) and washed in assay buffer. The percentage of bound cells was calculated after each wash Peptide inhibition was performed by incubating the cells with 500 μM peptide and 5 μg/ml TS2/16 (beta 1 activating antibody (IBGRL) at 0° C. for 15 minutes before their addition to the ICAM-4Fc coated plates.

[6] = system: neutrophil adhesion to ICAM-4; assay: Peptide and antibody inhibition of neutrophil adhesion to ICAM-4; details: FIG. 20; 2.5 μg/ml ICAM-4; 10 μg/ml blocking antibodies; peptides 500 μM
Experimental: Utilising blocking β integrin subunit antibodies and our blocking ICAM-4 peptides (i.e., SEQ ID NOs: 9, 10, 11 and 13—see Example 1) in a microplate neutrophil adhesion assay. Neutrophils were purified from buffy coats (obtained from the National Blood Service, Bristol, UK) as described in Henderson et al. (1987, Biochem. J. 246: 325-329). Cell adhesion assays were performed as described in Example 1 above. Immulon-4 96 well plates (Dynes Technologies, Billingshurst, UK) were coated with 1 μg/well protein A (Sigma, Poole, UK) for 24 hours at 4° C., washed three times with PBS and coated with 0.125 μg/well Fc fusion ICAM-4 protein (ICAM-4Fc) for 18 hours at 4° C. before blocking with 0.4% BSA PBS for 2 hours at 22° C. Neutrophils were labelled with 10 μg/ml 2′,7′-bis-(2-carboxyethyl)-5-(and-6-)carboxyfluorescein acetoxymethyl ester (Sigma, Poole, UK) in assay buffer (Iscoves modified Eagle medium, 2 mM EGTA, 0.1% BSA for 15 minutes at 37° C. Neutrophils were washed with assay buffer containing 2 mM Mn^2+. Neutrophils, at 5×10^5 cells per well, were added to the ICAM-4Fc-coated plates for 10 minutes at 37° C., prior to being cyclically read on a fluorescence microplate reader (excitation 485 nm, emission 530 nm) and washed in assay buffer. The percentage of bound cells was calculated after each wash. […]

| Molecule | input cells bound expressed as a percentage of binding to ICAM-4Fc in the absence of peptides [1] [%] | input cells bound expressed as a percentage of binding to human ICAM-4Fc in the absence of peptides [1] [%] | input cells bound expressed as a percentage of binding to human ICAM4Fc in the absence of peptides ([2]; FIG. 10, human ICAM-4Fc coated at 7.5 μg/ml, peptides 500 μM each, mean of three assays) [%] | input cells bound expressed as a percentage of binding to human ICAM-4Fc in the absence of peptides ([2]; FIG. 18, human ICAM-4Fc coated at 5 μg/ml, peptides 750 μM each, EDTA 2 mM, mean of two assays) [%] | input cells bound expressed as a percentage of binding to murine ICAM-4Fc in the absence of peptides [3] [%] | input cells bound expressed as a percentage of binding to murine ICAM-4Fc in the absence of peptides [4] [%] | effect on adhesion of day 4 erythroblasts to ICAM-4 [5] | effect on adhesion between neutrophils and ICAM-4 [6] |
| --- | --- | --- | --- | --- | --- | --- | --- | --- |
| O=C(O)CN(CCN(CC(=O)O)CC(=O)O)CC(=O)O [EDTA, reference compound] | 1 | 26 | 6 | 10 | 8 | 1 | – | – |
| aWssLahcl (AWSSLAHCL; not fully specified (some residues)) [aWssLahcl peptide] | – | 50 | – | – | – | – | inhibit adhesion | inhibit this interaction |
| rqgktlrgp (RQGKTLRGP; not fully specified (some residues); printed as rqgktlrgp) [rqgktlrgp peptide, reference compound] | 107 | 105 | – | – | 94 | – | had no effect | – |
| svpFWVrms (SVPFWVRMS; not fully specified (residues 1, 2, 3, 7, 8, 9)) [svpFWVrms peptide] | 61 | 64 | – | – | 67 | – | had no effect | – |
| tRwATSRit (TRWATSRIT; not fully specified (residues 1, 3, 8, 9)) [tRwATSRit peptide] | 58 | 58 | – | – | 58 | – | inhibit adhesion | inhibit this interaction |
